{"source": "patent US20110160444A1", "about": "“Cloning Transcription Factor Gene OsWOX20 That Regulates The Growth and Development of Monocotyledon's Root and Uses Thereof” (Huazhong Agricultural University, priority 2007, published 2011)", "key": {"OsWOX20 gene expression": {"test_system": "OsWOX20 gene expression", "assay": "Induced expression of rice endogenous gene OsWOX20 by realtime-PCR", "assay_type": "in vivo, rice variety Zhonghua No. 11", "conditions": "10 μM, roots of seedlings soaked; for Induction of expression of OsWOX20 gene: samples 0-24 h, normalized to actin1; for Time after which level of expression of OsWOX20 began to rise / Time at which level of expression of OsWOX20 reached peak: exogenous auxin", "protocol": "The rice variety “Zhonghua No. 11” was used as the research material and treated with auxin, cytokinin, an auxin inhibitor and light at day ten after germination. Auxin treatment was done by soaking the roots of the seedlings with 10 μM IAA (indoleacetic acid) and 10 μM NAA (naphthaleneacetic acid) and taking samples at 0 h, 0.5 h, 1 h, 2 h, 3 h, 4 h, 6 h, 9 h, 12 h and 24 h. Cytokinin treatment was done by soaking the roots of the seedlings with 10 μM 6-BA (6-benzylaminopurine) and taking samples at 0 h, 0.5 h, 1 h, 2 h, 3 h, 4 h, 6 h, 9 h, 12 h and 24 h. Auxin inhibitor NPA (N-1-naphthylphthalamic acid) treatment was performed by soaking the roots of the seedlings in 1 μM NPA solution and taking samples at 0 h, 0.5 h, 1 h, 2 h, 3 h, 4 h, 6 h, 9 h, 12 h and 24 h. Light treatment was carried out by allowing the seeds of rice variety “Zhonghua No. 11” to germinate in dark, then placing the seedlings which have germinated for 5 days in dark under light for growth, and sampling at 1 h, 2 h, 4 h, 8 h and 12 h after light illumination. Total RNAs were extracted from whole plants (Trizol reagent, purchased from Invitrogen) and reverse transcribed according to the method described in Example 4. The reverse transcription product was subjected to quantitative PCR in a reaction system of 25 μl containing 1.5 μl of reverse transcription product, 0.25 μM of each of left and right primers and 12.5 μl of SYBR Green mixture (Applied Biosystems). The PCR reaction was performed on a 7500 real-time quantitative PCR amplifier (Applied Biosystems) according to the protocol described in the manufacturer's manual provided by Applied Biosystems, with rice actin1 gene as the internal reference of the reaction. All primers were annealed at 58° C. and reaction was performed for 40 cycles. Each sample was assayed in triplicate and normalized to the level of expression of actin1. […] The OsWOX20 primers used in the quantitative PCR were: […]"}, "wild-type plants": {"test_system": "wild-type plants", "assay": "Effect of auxin inhibitor (NPA) on root length and numbers of crown and lateral roots, wild-type plants", "assay_type": "in vivo, rice", "conditions": "treated with 10^-6 mol/L NPA", "text": "(§1) 2) In order to compare the root system of transgenic OWOX20 lines with increased number of roots to that of wild-type lines, we collected seeds from five transgenic OWOX20 lines after the seeds were completely ripe and allowed the seeds to germinate to investigate growth of the roots."}, "[1]": {"test_system": "transgenic plants (OsWOX20 overexpression lines 1-3)", "assay": "Effect of auxin inhibitor (NPA) on root length and numbers of crown and lateral roots, OsWOX20 transgenic plants", "assay_type": "in vivo, rice", "conditions": "for Length of roots / Number of crown roots / Number of lateral roots: treated with 10^-6 mol/L NPA", "text": "as §1"}}, "data": [{"smiles": "c1ccc(CNc2ncnc3nc[nH]c23)cc1", "note": "[6-BA, 6-benzylaminopurine]", "values": [{"measurement": "Induction of expression of OsWOX20 gene", "setting": "OsWOX20 gene expression", "value": "can be induced"}]}, {"smiles": "O=C(O)Cc1c[nH]c2ccccc12", "note": "[IAA, indoleacetic acid]", "values": [{"measurement": "Induction of expression of OsWOX20 gene", "setting": "OsWOX20 gene expression", "value": "can be induced"}, {"measurement": "Time after which level of expression of OsWOX20 began to rise", "setting": "OsWOX20 gene expression", "value": 30, "unit": "min"}, {"measurement": "Time at which level of expression of OsWOX20 reached peak", "setting": "OsWOX20 gene expression", "value": "about 1 hour"}]}, {"smiles": "O=C(O)Cc1cccc2ccccc12", "note": "[NAA, naphthaleneacetic acid]", "values": [{"measurement": "Time after which level of expression of OsWOX20 began to rise", "setting": "OsWOX20 gene expression", "value": 30, "unit": "min"}, {"measurement": "Time at which level of expression of OsWOX20 reached peak", "setting": "OsWOX20 gene expression", "value": "about 1 hour"}]}, {"smiles": "O=C(O)c1ccccc1C(=O)Nc1cccc2ccccc12", "note": "[NPA, N-1-naphthylphthalamic acid]", "values": [{"measurement": "Length of roots", "setting": "wild-type plants", "value": "4.8 ± 0.5", "unit": "cm"}, {"measurement": "Number of crown roots", "setting": "wild-type plants", "value": "3 ± 0"}, {"measurement": "Number of lateral roots", "setting": "wild-type plants", "value": "6.4 ± 2.8"}, {"measurement": "Growth of the roots", "setting": "[1]; seeds from lines having increased number of roots, 10^-6 mol/L NPA", "value": "markedly inhibited"}, {"measurement": "Length of roots", "setting": "[1]; transgenic Line 1+", "value": "1.1 ± 0.3", "unit": "cm"}, {"measurement": "Number of crown roots", "setting": "[1]; transgenic Line 1+", "value": "3.0 ± 2.7"}, {"measurement": "Number of lateral roots", "setting": "[1]; transgenic Line 1+", "value": 0}, {"measurement": "Length of roots", "setting": "[1]; transgenic Line 2+", "value": "1.3 ± 0.6", "unit": "cm"}, {"measurement": "Number of crown roots", "setting": "[1]; transgenic Line 2+", "value": "1.7 ± 0.6"}, {"measurement": "Number of lateral roots", "setting": "[1]; transgenic Line 2+", "value": 0}, {"measurement": "Length of roots", "setting": "[1]; transgenic Line 3+", "value": "1.0 ± 0.6", "unit": "cm"}, {"measurement": "Number of crown roots", "setting": "[1]; transgenic Line 3+", "value": "3.0 ± 1.0"}, {"measurement": "Number of lateral roots", "setting": "[1]; transgenic Line 3+", "value": 0}, {"measurement": "Numbers and length of crown roots and lateral roots versus untreated plant lines", "setting": "[1]; transgenic plant lines in the presence of NPA", "value": "significantly decreased"}]}]}
